The values that follow come from ChEMBL document CHEMBL4118204, “Antidiabetic potential of phytochemicals isolated from the stem bark of Myristica fatua Houtt. var. magnifica (Bedd.) Sinclair” (Bioorg Med Chem, 2018).

Series [1] has as its system L6. The series can be described thus: Antidiabetic activity in rat L6 cells assessed as increase in 2-NBDG uptake pretreated for 24 hrs followed by 2-NBDG addition after 30 mins by FACS. The class given is functional, cell-based.
In series [2] the test system is L6. The experiment in a line: Antidiabetic activity in rat L6 cells assessed as effect on 2-NBDG uptake at 25 uM pretreated for 24 hrs followed by 2-NBDG addition after 30 mins by FACS (reference value: 20%). Format: functional.
For another series, the target named is Albumin (Bos taurus, UniProt P02769). The experiment in a line: Antiglycation activity in bovine serum albumin assessed as inhibition of advanced glycated end product formation after 24 hrs in presence of alpha-D-glucose by fluorescence assay.
Albumin, sequence (P02769 whole entry): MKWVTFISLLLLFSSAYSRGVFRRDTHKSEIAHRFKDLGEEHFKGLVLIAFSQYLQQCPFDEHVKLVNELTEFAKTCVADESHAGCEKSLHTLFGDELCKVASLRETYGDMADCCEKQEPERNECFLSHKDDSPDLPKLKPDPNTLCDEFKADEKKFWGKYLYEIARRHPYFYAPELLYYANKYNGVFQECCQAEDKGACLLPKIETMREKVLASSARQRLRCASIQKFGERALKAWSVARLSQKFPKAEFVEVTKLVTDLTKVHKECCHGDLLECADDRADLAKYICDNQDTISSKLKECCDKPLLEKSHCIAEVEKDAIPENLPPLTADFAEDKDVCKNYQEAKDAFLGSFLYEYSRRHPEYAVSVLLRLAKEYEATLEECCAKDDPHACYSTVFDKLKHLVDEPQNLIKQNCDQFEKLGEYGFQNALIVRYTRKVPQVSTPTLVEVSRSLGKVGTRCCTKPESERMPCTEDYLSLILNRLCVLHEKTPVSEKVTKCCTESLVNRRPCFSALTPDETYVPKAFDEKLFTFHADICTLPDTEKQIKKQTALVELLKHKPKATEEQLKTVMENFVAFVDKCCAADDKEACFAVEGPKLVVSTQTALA
In series [3] the test system is L6. The series can be described thus: Antidiabetic activity in rat L6 cells assessed as effect on 2-NBDG uptake at 50 uM pretreated for 24 hrs followed by 2-NBDG addition after 30 mins by FACS (reference value: 20%). The class given is functional.
The subject of series [4] is L6. The series can be described thus: Cytotoxicity against rat L6 cells up to 50 uM after 24 hrs by MTT assay. The class given is cell-based. Conditions: l6, 24 h.
Series [5] is described as follows: Inhibition of rat intestinal alpha-glucosidase using p-nitrophenyl alpha-D-glucopyranoside as substrate pretreated for 10 mins followed by substrate addition measured after 5 mins.
Another series deals with T1, Pancreatic alpha-amylase (Sus scrofa, UniProt P00690).
T1 sequence (P00690 whole entry): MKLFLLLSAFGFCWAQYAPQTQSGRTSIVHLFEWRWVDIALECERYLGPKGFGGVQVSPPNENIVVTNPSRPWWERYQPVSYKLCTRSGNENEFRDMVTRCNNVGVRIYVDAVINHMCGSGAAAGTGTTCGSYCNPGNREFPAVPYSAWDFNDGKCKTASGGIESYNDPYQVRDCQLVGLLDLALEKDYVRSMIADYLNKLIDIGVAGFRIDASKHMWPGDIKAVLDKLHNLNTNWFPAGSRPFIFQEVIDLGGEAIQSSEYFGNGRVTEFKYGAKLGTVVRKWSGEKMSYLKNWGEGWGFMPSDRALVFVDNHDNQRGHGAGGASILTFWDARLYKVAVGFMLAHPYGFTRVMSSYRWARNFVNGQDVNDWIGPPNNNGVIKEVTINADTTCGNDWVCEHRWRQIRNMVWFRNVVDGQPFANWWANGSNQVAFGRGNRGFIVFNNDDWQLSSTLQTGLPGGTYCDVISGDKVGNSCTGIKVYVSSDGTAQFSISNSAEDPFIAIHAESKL
The series can be described thus: Inhibition of porcine pancreatic alpha-amylase using starch as substrate after 30 mins by iodine reagent based assay.

Series [6] concerns L6. The experiment in a line: Antidiabetic activity in rat L6 cells assessed as effect on 2-NBDG uptake at 10 uM pretreated for 24 hrs followed by 2-NBDG addition after 30 mins by FACS (reference value: 20%). Format: functional.
In series [7] the test system is L6. The experiment in a line: Antidiabetic activity in rat L6 cells assessed as effect on 2-NBDG uptake at 100 uM pretreated for 24 hrs followed by 2-NBDG addition after 30 mins by FACS (reference value: 20%). The class given is functional.

Structures are written as SMILES.

In the case of `CCCCCCCCCCCCC(=O)c1cccc(C(=O)O)c1`, the Activity entry with L6 [1] is “Dose-dependent effect”; in the series on L6 [2], 22.5%; in the series with L6 [3], 31.5%; in the series on L6 [4] it was “Non-Toxic”; in the series on L6 [6] it was 17%. In addition, the IC50 at Albumin stood at 411 µM; in [5], 372 µM; against Pancreatic alpha-amylase, 36.6 µM.
As to `CCCCCCCCCCCCCC(=O)c1c(O)cccc1O`, the Activity result in the series on L6 [1] is “Dose-dependent effect”; in the series on L6 [2], 34.1%; in the series with L6 [3], 36.3%; in the series with L6 [4] it was “Non-Toxic”; with L6 [6], 32.9%. Further, the results for the IC50 (at Albumin; in [5]; against Pancreatic alpha-amylase) were 121 µM, 172 µM and 74.1 µM, respectively.
In the case of `O=C(CCCCCCCCc1ccccc1)c1c(O)cccc1O` [MALABARICONE A], the Activity result with L6 [1] is “Dose-dependent effect”; with L6 [2], 33.4%; with L6 [3], 36.7%; in the series on L6 [4] it was “Non-Toxic”; in the series on L6 [6], 32.9%. Also, the IC50 at Albumin is 19.3 µM; in series [5], 91.4 µM; against Pancreatic alpha-amylase it was 19.1 µM.
`CCCCCCCCCCCCCC(=O)c1c(O)cccc1OC`: the Activity entry in the series on L6 [1] was “Dose-dependent effect”; with L6 [2], 28%; in the series with L6 [3] it was 34.7%; in the series on L6 [4] it was “Non-Toxic”; in the series with L6 [6], 21.2%. The IC50 at Albumin came to 192 µM; in series [5], 257 µM; against Pancreatic alpha-amylase it was 39 µM.
With `C[C@H]1O[C@H](O[C@H]2[C@H](O)[C@@H](O)[C@@H](O[C@H]3[C@H](O)[C@@H](O)C(O)O[C@@H]3CO)O[C@@H]2CO)[C@H](O)[C@@H](O)[C@@H]1N[C@H]1C=C(CO)[C@@H](O)[C@H](O)[C@H]1O` (some centres not stated) [ACARBOSE], in series [5], the IC50 came to 66.6 µM.
For `O=C(CCCCCCCCc1ccc(O)c(O)c1)c1c(O)cccc1O` [MALABARICONE C], the Activity result in the series with L6 [1] was “Dose-dependent effect”; with L6 [2], 18.3%; in the series on L6 [3] it was 23.9%; in the series on L6 [4], “Non-Toxic”; in the series on L6 [6], 17%. For the same compound, the IC50 on Albumin stood at 15 µM; in [5], 43.6 µM; on Pancreatic alpha-amylase, 10.6 µM.
`O=C(CCCCCCCCc1ccc(O)cc1)c1c(O)cccc1O` [MALABARICONE B]: the Activity entry was “Dose-dependent effect” with L6 [1], 45.8% in the series with L6 [2], 52.7% in the series with L6 [3] and 37.5% in the series on L6 [6]. The IC50 at Albumin is 40.3 µM; in series [5], 63.7 µM; against Pancreatic alpha-amylase, 12.9 µM.
As to `CN(C)C(=N)NC(=N)N` [METFORMIN], in the series with L6 [7], the Activity was 36.6%.
`COc1cccc(O)c1C(=O)CCCCCCCCc1ccc(O)cc1`: the Activity result in the series on L6 [1] is “Dose-dependent effect”; with L6 [2] it was 34.1%; in the series with L6 [3], 34.6%; in the series with L6 [4] it was “Non-Toxic”; in the series with L6 [6] it was 18.3%. In addition, the IC50 on Albumin turned out to be 104 µM; in [5], 94.5 µM; against Pancreatic alpha-amylase, 32.3 µM.
